Results from PMC6651341, “EDB-FN Targeted Peptide–Drug Conjugates for Use against Prostate Cancer” (International Journal of Molecular Sciences, 2019).
Where “and” joins values, the source holds several entries; their conditions need not be identical. Equal entries are not always repeated. Where a SMILES comes first, the peptide text is derived from it. Bridges are numbered along the chain shown (N, C = ends). [ ]: non-standard residue; d: D form. The star is where a group is joined. X1 = CC(=O)O[C@@]12CO[C@@H]1C[C@H](O)[C@@]1(C)C(=O)[C@H](O)C3=C(C)[C@@H](OC(=O)[C@H](OC(=O)CCNC(=O)C4CCC(CN5C(=O)CC(*)C5=O)CC4)[C@@H](NC(=O)OC(C)(C)C)c4ccccc4)C[C@@](O)([C@@H](OC(=O)c4ccccc4)[C@H]21)C3(C)C; Doxorubicin(Traut) = COc1cccc2c1C(=O)c1c(O)c3c(c(O)c1C2=O)C[C@@](O)(C(=O)CO)C[C@@H]3O[C@H]1C[C@H](NC(=N)CCCS*)[C@H](O)[C@H](C)O1; Ahx = NCCCCCC(=O)O

What was measured:
[1] = system: C4-2 cells with TGF-β treatment (EDB-FN overexpression); test: MTS cell viability of C4-2 cells treated with TGF-β to overexpress EDB-FN; format: cell-based, human; settings: C4-2, TGF-β 10 ng/mL for 3 days; for decrease in cell viability in TGF-β treated cells as compared to untreated cells: after 72 h
Description: (§1) Cell-proliferation assay using MTS reagent was conducted against five cell lines (RWPE-1, PC3, DU-145, LNCaP, and, C4-2). Cells were seeded into 96-well plates (5 × 10^3 cells for all the cells) and incubated with 100 µL of complete medium (RPMI-1640 for RWPE-1, DU-145, LNCaP, and C4-2; DMEM for PC3) overnight at 37 °C with 5% CO2. Various concentrations (0, 0.06, 0.6, 6, 60, 600 μM) of the peptide solution (20 μL) were added to cells to yield the final concentrations of peptide (0, 0.01, 0.1, 1, 10, 100 μM). The cells were kept in an incubator (37 °C, 5% CO2) for 24, 48, or 72 h accordingly for different treatment time responses. Then, a CellTiter 96 aqueous solution (20 μL) was added to each well and incubated for 4 h under the same condition. The absorbance was obtained at 490 nm using SpectraMax M2 microplate reader to detect the formazan product. Wells containing cells in the absence of any peptide were used as a control. The percentage of cell viability was calculated by [(OD value of cells treated with the test mixture of compounds) − (OD value of culture medium)] / [(OD value of control cells) − (OD value of culture medium)] × 100%. […] Cell viability was determined by measuring the absorbance at 490 nm using SpectraMax M2 microplate spectrophotometer, as mentioned above.
To compare the cytotoxicity of compounds using treatment of TGF-β, the cells were culture, and 8000 cells (RPWE-1, PC3, DU-145, LNCap, and C4-2) were added in 120 μL per well with TGF-β treatment. Cells were exposed to TGF-β at 10 ng/mL for 3 days. Then cells were seeded in the corresponding medium (DMEM containing 10% FBS and 1% penicillin–streptomycin for DU-145, LNCaP, and PC3; keratinocyte containing 0.1% FBS without antibiotics for RWPE-1), 24 h prior to the experiment. Then, MTS assay was followed up, as mentioned in 3.5.1.

[2] = system: RWPE-1, PC3, LNCap, Du-145 cell lines; test: MTS cell viability, range over four cell lines; format: cell-based, human; settings: 5 µM, 72 h incubation
Text: (§2) Human epithelial prostate cell line (RWPE-1, ATCC No. CRL-11610), human prostate cancer cell line (Human prostate carcinoma DU-145, ATCC No. HTB-81), human adenocarcinoma PC3, ATCC No. CRL-1435), androgen-sensitive human prostate adenocarcinoma cells (LNCaP, ATCC No. CRL-1740), and castration-resistant LNCaP-derived C4-2 (ATCC No. CRL-1595) were purchased from American Type Culture Collection (ATCC), Manassas, VA, USA. All the media, serum, and antibiotics were bought from American Type Culture Collection (ATCC) (Manassas, VA, USA) and Sigma life-science (St. Louis, MO, USA). Keratinocytes SFM (1×) with EGF + BPE was bought from Gibco life technologies (Thermo Fisher Scientific), Gaithersburg, MD, USA. CellTiter 96 was bought from Promega, Madison, WI, USA. Dithiothreitol (DTT) was bought from Thermo Fisher scientific, Carlsbad, CA, USA, and TGF-β was bought from Abcam, Boston, MA, USA.
as §1, with “Then, a CellTiter 96 aqueous solution (20 μL) was added to each well and incubated for 4 h under the same condition.” left out, “Wells containing cells in the absence of any peptide were used as a control.” left out

PC3 = test: MTS cell viability assay, PC3; format: cell-based, human; settings: PC3, 2 h incubation, 0.01-100 µM in 5% DMSO
Text: as §2
as §1, with “Then, a CellTiter 96 aqueous solution (20 μL) was added to each well and incubated for 4 h under the same condition.” left out, “Wells containing cells in the absence of any peptide were used as a control.” left out

[3] = Stability under redox conditions with dithiothreitol (DTT); format: physicochemical; settings: PBS pH 7.4, 12 equiv DTT (0.12 mM DTT, 0.010 mM peptide), analytical HPLC 214 nm, % remaining from AUC
Description: (§3) The stability of peptide–drug conjugate 13 was evaluated in the phosphate buffered saline (PBS). The pH of PBS was adjusted to 6.8, 7.0, 7.4 using HCl and NaOH as needed. In brief, 250 µL of 1 × PBS was mixed with 45 µL of 0.25 mM Dox-peptide conjugate 13. The mixture was incubated at 37 °C in a water bath covered with aluminum foil. An aliquot (40 µL) was removed at different time intervals, such as 4, 24, and 84 h and analyzed using analytical RP-HPLC at 490 nm. The percentage of the remained peptide was calculated using the area under the curve (AUC) by integrating the chromatogram in analytical HPLC. For evaluation of stability in DTT, a solution of DTT (0.120 mM) was prepared using PBS (pH 7.4). A solution of compounds (1, 8, and 13 at 1 mM) was prepared in PBS (pH = 7.4). A volume of 45 µL of the peptide was added to 2.250 mL of PBS in a UV-blocking glass vial. The glass vials were put under nitrogen and stirred using a small magnetic bead. A volume of DTT ([…], 12 equiv) was added to the solution, which was incubated with each peptide sample to obtain a working concentration of 0.12 mM DTT and 0.010 mM peptide. Aliquots of 200 µL were collected at different time intervals and analyzed using analytical HPLC vials (0 min was used as controls without DTT) after quenching the DTT with 10 µL of H2O (pH = 2). The aliquots were run on analytical HPLC with detection at 214 nm.

Human cathepsin B = biological target: T1, Human cathepsin B (Homo sapiens, UniProt P07858); test: Hydrolysis with cathepsin B enzyme; format: in vitro ADME; settings: activated human cathepsin B, 50 mM acetate buffer pH 5.0 with 1 mM EDTA, 8 µL of 1 mM conjugate per 200 µL, HPLC 214/490 nm and MALDI-TOF
T1 construct: purchased Athens Research Lot # CB2016-02 (a lot number; no catalogue number given)
Description: Human cathepsin B (CTSB, Lot # CB2016-02 from Athens Research, Athens, GA, USA) was used to hydrolyze the cathepsin linker GFLG in conjugated peptide 13. A stock solution of cathepsin B enzyme (0.434 µg/µL) was prepared using 50 mM acetate (pH 5.0) buffer with 1 mM EDTA. The activation buffer was separately prepared using 30 mM DTT and 15 mM EDTA in H2O. An aliquot of 2.25 µL of cathepsin B stock was activated with 5 µL of activation buffer for 15 min at room temperature then diluted with 1.185 mL of acetate buffer and aliquoted into different tubes with 200 µL each. Further 8 µL of 1 mM of conjugated peptide 13 was added to aliquots and incubated for various time intervals. Then, the reaction was quenched by boiling to denature cathepsin B for 10 min. A 400 µL of cold methanol was added to precipitate the proteins followed by centrifugation of sample 17× g (13,300 rpm) for 10 min. A supernatant (500 µL) was collected, evaporated, and reconstituted with 300 µL of HPLC solvent A (H2O with 0.1% TFA). The eluent fraction from HPLC was further collected and analyzed using MALDI-TOF mass spectrometry to confirm the hydrolysis of the conjugate.

[4] = Stability in 25% human serum; format: in vitro ADME; settings: 25% human serum in RPMI-1640, 37 °C, conjugate 125 µM, aliquots 2-120 min, methanol precipitation, analytical HPLC, trendline R^2 0.978, each point average of three readings
Description: The stability was performed using 25% human serum. 325 µL of RPMI-1640 media was incubated with 125 µL of human serum at 37 °C in a water bath. Then 50 µL of 125 µM of conjugate 13 was added to the RPMI and serum. The control experiment was performed without conjugate using an aqueous 5% DMSO. Several aliquots (55 µL) were removed at 2, 5, 10, 15, 30, 60, 90, and 120 min. The aliquots were added to 120 µL of cold methanol to precipitate the serum proteins with vigorous mixing using vortex and kept at ice for 10 min. Then, the samples were centrifuged at 17× g (13,300 rpm) for 10 min to get a pellet of the insoluble peptide. The supernatant was collected and analyzed on analytical HPLC, as mentioned before.

[5] = Stability in PBS at different pH; format: physicochemical; settings: pH values ranging from 6.5 to 7.4 (method: 6.8, 7.0, 7.4), 37 °C, aliquots at 4, 24, 84 h, analytical RP-HPLC 490 nm, % remaining from AUC
Description: as §3

C4-2 = test: MTS cell viability assay, C4-2 without TGF-β; format: cell-based, human; settings: C4-2 without TGF-β, 24–72 h
Text: as §2
as §1, with “Then, a CellTiter 96 aqueous solution (20 μL) was added to each well and incubated for 4 h under the same condition.” left out, “Wells containing cells in the absence of any peptide were used as a control.” left out

| Structure (SMILES) | decrease in cell viability in TGF-β treated cells as compared to untreated cells [1] | cell proliferation (cell viability), range over all four cell lines [2] | toxicity at or below 10 µM (PC3) | cytotoxicity compared to drug alone (C4-2) | further results |
| --- | --- | --- | --- | --- | --- |
| CC(=O)O[C@@]12CO[C@@H]1C[C@H](O)[C@@]1(C)C(=O)[C@H](O)C3=C(C)[C@@H](OC(=O)[C@H](O)[C@@H](NC(=O)OC(C)(C)C)c4ccccc4)C[C@@](O)([C@@H](OC(=O)c4ccccc4)[C@H]21)C3(C)C [Doce, docetaxel, reference compound] | 16% | 54–61% |  |  |  |
| COc1cccc2c1C(=O)c1c(O)c3c(c(O)c1C2=O)C[C@@](O)(C(=O)CO)C[C@@H]3O[C@H]1C[C@H](N)[C@H](O)[C@H](C)O1 [Dox, doxorubicin, reference compound] |  | 20–34% | no significant toxicity |  | effect of TGF-β treatment on cytotoxicity compared to TGF-β untreated cells [1]: no observed effect |
| CC(C)[C@@H]1NC(=O)[C@H]([C@@H](C)O)NC(=O)[C@@H](N)CCCCNC(=O)CC[C@@H](C(N)=O)NC(=O)[C@H](CC(=O)O)NC(=O)[C@H](C)NC(=O)[C@H](CO)NC(=O)[C@H]([C@@H](C)O)NC(=O)[C@H](CCCNC(=N)N)NC1=O [compound 8] (H-KTVRTSADE-NH2; lactam 1-9) |  |  |  |  | half-life / stability under redox conditions (DTT) [3]: > 8 h and 8 h |
| COc1cccc2c1C(=O)c1c(O)c3c(c(O)c1C2=O)C[C@@](O)(C(=O)CO)C[C@@H]3O[C@H]1C[C@H](NC(=N)CCCSSC[C@H](N)C(=O)NCC(=O)N[C@@H](Cc2ccccc2)C(=O)N[C@@H](CC(C)C)C(=O)NCC(=O)NCCCCCC(=O)N[C@H]2CCCCNC(=O)CC[C@@H](C(N)=O)NC(=O)[C@H](CC(=O)O)NC(=O)[C@H](C)NC(=O)[C@H](CO)NC(=O)[C@H]([C@@H](C)O)NC(=O)[C@H](CCCNC(=N)N)NC(=O)[C@H](C(C)C)NC(=O)[C@H]([C@@H](C)O)NC2=O)[C@H](O)[C@H](C)O1 [compound 13] (H-C(Doxorubicin(Traut))GFLG[Ahx]KTVRTSADE-NH2; lactam 7-15) | 17% | 25–35% | no significant toxicity | less cytotoxic as compared to drug alone | time within which cathepsin B cleaves the GFLG linker / releases drug (Human cathepsin B): ≤ 5 min; half-life at 12.5 µM [4]: ~0.197 h; half-life in PBS [5]: ~ 10 h |
| CC(=O)O[C@@]12CO[C@@H]1C[C@H](O)[C@@]1(C)C(=O)[C@H](O)C3=C(C)[C@@H](OC(=O)[C@H](OC(=O)CCNC(=O)C4CCC(CN5C(=O)CC(SC[C@H](N)C(=O)NCC(=O)N[C@@H](Cc6ccccc6)C(=O)N[C@@H](CC(C)C)C(=O)NCC(=O)NCCCCCC(=O)N[C@H]6CCCCNC(=O)CC[C@@H](C(N)=O)NC(=O)[C@H](CC(=O)O)NC(=O)[C@H](C)NC(=O)[C@H](CO)NC(=O)[C@H]([C@@H](C)O)NC(=O)[C@H](CCCNC(=N)N)NC(=O)[C@H](C(C)C)NC(=O)[C@H]([C@@H](C)O)NC6=O)C5=O)CC4)[C@@H](NC(=O)OC(C)(C)C)c4ccccc4)C[C@@](O)([C@@H](OC(=O)c4ccccc4)[C@H]21)C3(C)C (stereo partly drawn) [compound 14] (H-C(X1)GFLG[Ahx]KTVRTSADE-NH2; lactam 7-15) | 10% |  |  | less cytotoxic as compared to drug alone |  |
